For 38 compounds, IC50 and inhibition results are on record in ChEMBL document CHEMBL4808148, “HDAC6 screening dataset using tau-based substrate in an enzymatic assay yields selective inhibitors and activators” (2021).

SMILES strings stand for the structures. pIC50: −log10 of the molar value.

For one assay, the target named is T1, Protein deacetylase HDAC6 (Homo sapiens, UniProt Q9UBN7).
T1 sequence (Q9UBN7 whole entry): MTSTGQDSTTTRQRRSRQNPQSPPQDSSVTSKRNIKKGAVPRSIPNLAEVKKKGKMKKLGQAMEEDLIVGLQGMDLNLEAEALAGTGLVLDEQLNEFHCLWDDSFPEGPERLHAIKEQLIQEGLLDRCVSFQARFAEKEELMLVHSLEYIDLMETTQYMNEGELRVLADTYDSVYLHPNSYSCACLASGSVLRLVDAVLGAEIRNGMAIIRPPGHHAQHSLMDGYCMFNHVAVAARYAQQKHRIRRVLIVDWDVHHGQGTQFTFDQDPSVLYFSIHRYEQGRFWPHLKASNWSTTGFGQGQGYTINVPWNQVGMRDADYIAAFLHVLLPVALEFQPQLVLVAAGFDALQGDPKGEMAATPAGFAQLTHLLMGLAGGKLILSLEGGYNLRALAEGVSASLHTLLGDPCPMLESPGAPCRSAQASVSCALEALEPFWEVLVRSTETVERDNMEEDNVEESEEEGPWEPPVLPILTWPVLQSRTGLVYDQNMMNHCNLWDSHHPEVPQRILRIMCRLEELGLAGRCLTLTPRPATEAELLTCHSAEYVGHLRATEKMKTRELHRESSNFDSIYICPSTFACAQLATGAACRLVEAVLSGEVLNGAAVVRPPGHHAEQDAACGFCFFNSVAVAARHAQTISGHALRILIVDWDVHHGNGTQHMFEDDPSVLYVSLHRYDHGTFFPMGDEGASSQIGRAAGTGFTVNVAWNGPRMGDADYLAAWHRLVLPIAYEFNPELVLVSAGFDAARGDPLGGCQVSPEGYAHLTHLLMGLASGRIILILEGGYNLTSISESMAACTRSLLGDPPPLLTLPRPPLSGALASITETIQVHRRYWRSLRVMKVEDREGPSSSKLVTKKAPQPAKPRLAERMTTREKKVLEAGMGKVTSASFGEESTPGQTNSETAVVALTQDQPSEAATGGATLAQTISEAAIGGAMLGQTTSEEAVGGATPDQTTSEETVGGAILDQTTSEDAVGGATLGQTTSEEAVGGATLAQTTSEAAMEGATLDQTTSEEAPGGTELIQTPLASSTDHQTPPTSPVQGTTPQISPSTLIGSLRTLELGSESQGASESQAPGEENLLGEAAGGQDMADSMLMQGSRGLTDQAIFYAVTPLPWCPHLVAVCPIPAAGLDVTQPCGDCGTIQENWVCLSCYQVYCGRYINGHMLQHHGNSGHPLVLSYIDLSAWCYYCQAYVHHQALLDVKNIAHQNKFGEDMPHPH
Details: not given
Consider `Cc1nc2cc(-n3ncc(C(=O)c4cc5ccccc5[nH]4)c3N)ccc2[nH]1` [FGFR INHIBITOR DEBIO 1347], for which the pIC50 is 7.08.
Same read-out and setting: to `Cc1ccc(C(=O)Nc2ccc(CN3CCN(C)CC3)c(C(F)(F)F)c2)cc1C#Cc1cnc2[nH]ncc2c1` [OLVEREMBATINIB] belongs 5.68; to `N=C(N)c1cc2ccc(OC(=O)c3cccs3)cc2s1`, 5.39.

The next assay concerns the target T2, Protein deacetylase HDAC6 (Homo sapiens) (UniProt Q9UBN7).
T2 sequence (whole entry): T1 sequence (Q9UBN7 whole entry)
The following applies: at 10 µM.
On to `Cc1[nH]cnc1-c1ccc(Cl)cc1`, for which the inhibition was 94.8%.
Same read-out and setting: to `CC(C)COC(=O)c1ccc(N)cc1` belongs 82.1%; to `NS(=O)(=O)c1nn2cc(-c3ccccc3)nc2s1`, 81.9%; to `CC(=O)Oc1ccccc1C(=O)Nc1ccccc1`, 61.5%.
The same measure, in the same setting: to `CC(C)[C@H](C(=O)Nc1ccc(C(=O)NO)cc1)c1ccccc1` belongs 101%.
On to `CN(C)CC/C=C1\c2ccccc2Sc2ccc(Cl)cc21`, for which the inhibition is 94.5%.
Still for that read-out and setting: to `Cc1cn([C@H]2C=C[C@@H](CO)O2)c(=O)[nH]c1=O` belongs 19.5%.
Turning to `Nc1ncnc(Nc2ccc(Cl)cc2)n1`, the inhibition came out at 59.8%.
The same measure, in the same setting: to `CC1(C)CNc2cc(NC(=O)c3cccnc3NCc3ccncc3)ccc21` belongs 78.2%; to `C/N=c1/nc(-c2ccccc2)n(-c2ccccc2)s1`, 81.7%.
Same read-out and setting: to `c1ccc2sc(SNC3CCCCC3)nc2c1` belongs 23.2%; to `c1cc(Nc2cc(C3CC3)n[nH]2)nc(Nc2ccc3[nH]cnc3c2)n1`, 66.6%.
Still for that read-out and setting: to `C/C(=N\NC(=N)N)c1cc(NC(=O)CCCCCCCCC(=O)Nc2cc(/C(C)=N/NC(=N)N)cc(/C(C)=N/NC(=N)N)c2)cc(/C(C)=N/NC(=N)N)c1` belongs 57.5%; to `CN(C)Cc1c(C(=O)NCCOc2ccc(C(=O)NO)cc2)oc2ccccc12`, 102%.
In the case of `O=C1Cc2c([nH]c3ccc(Br)cc23)-c2ncccc2N1`, the inhibition was 92.8%.
On the same count and under the same terms, to `Cc1cc(Cl)ccc1OCCCC(=O)NO` belongs 96.5%; to `O=C(NC1CC1)c1cc(-c2cccs2)on1`, 70.5%; to `CCCn1c(=O)c2[nH]c(-c3cnn(Cc4cccc(C(F)(F)F)c4)c3)nc2n(CC)c1=O`, 18.7%.
`CCCCOC(=O)c1ccc(O)cc1`: the inhibition is 81.3%.
Still for that read-out and setting: to `FC(F)(F)c1cc(NC(=S)Nc2ccc(Br)cc2-c2nnn[nH]2)cc(C(F)(F)F)c1` belongs 31.7%.
The same measure, in the same setting: to `CCN(CC)C(=O)Nc1ccc(OCC(O)CNC(C)(C)C)c(C(C)=O)c1` (stereo not drawn) belongs 27.1%.
The same measure, in the same setting: to `CN1CCCN=C1/C=C/c1cccc(O)c1` belongs 53.6%; to `O=C(Nc1ccc([N+](=O)[O-])cc1Cl)c1cc(Cl)ccc1O`, 42.3%.
Consider `COc1ccc(C2C(=O)c3ccccc3C2=O)cc1`, for which the inhibition was 99.8%.
As to `O=c1c(O)c(-c2ccc(O)c(O)c2)oc2cc(O)cc(O)c12`, the inhibition was determined as 108%.
For the compound `C[C@H](NCc1ccc(OCc2cccc(F)c2)cc1)C(N)=O`, the inhibition came to 84.6%.
Take `Cc1cc(NCCO)nc(-c2ccc(Br)cc2)n1`: the inhibition was 64.4%.
On to `NS(=O)(=O)c1cc2c(cc1C(F)(F)F)NC(Cc1ccccc1)NS2(=O)=O` (stereo not drawn), for which the inhibition turned out to be 36%.
As to `CC(C)OC(=O)Nc1cccc(Cl)c1`, the inhibition is 73%.
Same read-out and setting: to `O=C(Nc1ccc(O)cc1)c1ccccc1O` belongs 100%; to `c1ccc2c(c1)Nc1ccccc1S2`, 71.8%; to `Cc1cc(O)c2c(=O)c3c(O)cc(O)c4c5c(O)cc(O)c6c(=O)c7c(O)cc(C)c8c1c2c(c34)c(c78)c65`, 66.5%.
Same read-out and setting: to `CC(C)c1ccc2oc3nc(N)c(C(=O)O)cc3c(=O)c2c1` belongs 108%; to `Cn1ccc2cc(NC(=O)Nc3cccnc3)ccc21`, 50.6%; to `CN1CCN(c2ccc3nc(-c4c(N)c5c(F)cccc5[nH]c4=O)[nH]c3c2)CC1`, 63%.
